Like-named read-outs stand apart in the source and are kept apart here.
How the values were obtained:
[1] = Plasma concentration of test compound in xenograft mice; assay type: in vivo, mouse; conditions: for concentration at 8 h: mouse, plasma, oral, tumor bearing mice, read-out: Test compound concentrations in plasma 8 h after last dose, Mean ± SD
Description: (§1) The in vivo efficacy of test compounds (e.g., 6-(2,4-dimethylthiazol-5-yl)-2-((1-(pyrido[2,3-d]pyrimidin-4-yl)piperidin-4-yl)methyl)pyridazin-3(2H)-one) on cancer cells is determined using a mouse xenograft model of TNBC (MDA-MB-231). 5×10^6 MDA-MB-231 cells (in 0.2 ml of FBS-free medium containing 50% Matrigel) are injected into the subcutaneous tissue of each mouse. Treatment is initiated (Day 0) when the average tumor volume reaches 100 mm^3. Tumor bearing mice are treated with vehicle and different doses of test compound (15 mg/kg, 35 mg/kg, 50 mg/kg, and 100 mg/kg) orally, once daily, for 3 weeks. Tumor volumes (mm^3) are measured post-implantation of cells once every 2-3 days throughout the study. At the end of the treatment period, a portion of the tumor tissue is excised and homogenized to analyze the levels of MYC biomarker using ELISA. Blood samples are collected from mice treated with test compound 8 hours after the final dose.

HepG2 = assay: Mouse hollow fiber model, liver cancer (HepG2); assay type: in vivo; conditions: liver cancer HepG2 hollow fibers s.c. in mice; 50 mg/kg orally once daily for five days; modified MTT; vs Day 5 vehicle
Description: (§2) The in vivo efficacy of test compounds (e.g., 6-(2,4-dimethylthiazol-5-yl)-2-((1-(pyrido[2,3-d]pyrimidin-4-yl)piperidin-4-yl)methyl)pyridazin-3(2H)-one) on cancer cells is determined using the mouse hollow fiber model established at the National Cancer Institute (NCI). Triple negative breast cancer (TNBC) (MDA-MB-231), pancreatic cancer (Mia-PaCa-2), and liver cancer (HepG2) cells are added to differently colored hollow fibers (KrosoFlo@Implant membrane, Green: Lot No.: 20051617, Blue: Lot No.: 20008858, White: Lot No.: 20051615) and sealed at both ends. Three hollow fibers each containing a different cancer line are surgically implanted subcutaneously into both the left and right flanks of mice (total of six hollow fibers per mouse). Drug treatment is initiated on Day 0, three days post implantation of fibers. Each treatment group has 2 mice (4 hollow fibers per cancer type): Group 1: Vehicle control; Group 2: Gemcitabine control dosed intraperitoneally (i.p.) at 50 mg/kg once every three days; Group 3: Test compound dosed orally at 50 mg/kg once daily for five days. […] Mean % net cell growth is calculated using the formula [(mean OD(day5)−mean OD(day0))/(mean OD(day0))×100%]. Mean % inhibition of cell growth due to treatment is calculated relative to the mean % net cell growth of the Day 5 vehicle control for the particular cancer line.

MDA-MB-231 [2] = assay: Mouse xenograft model of TNBC (MDA-MB-231), tumor volume and histopathology; assay type: in vivo
Description: as §1

Mia-PaCa-2 = assay: Mouse hollow fiber model, pancreatic cancer (Mia-PaCa-2); assay type: in vivo; conditions: pancreatic cancer Mia-PaCa-2 hollow fibers s.c. in mice; 50 mg/kg orally once daily for five days; modified MTT; vs Day 5 vehicle
Description: as §2

[3] = Body weight and clinical signs in the mouse xenograft study; assay type: in vivo; conditions: 15-100 mg/kg orally once daily for 3 weeks, throughout the study
Description: as §1

MYC = MYC biomarker in tumor homogenate by ELISA, xenograft mice; assay type: in vivo, mouse; conditions: for MYC protein levels in tumor homogenate, Mean ± SD: ELISA, vehicle control 41.93 ± 5.38
Description: as §1

[4] = Body weight and clinical signs in the mouse hollow fiber study; assay type: in vivo; conditions: mice, 50 mg/kg orally once daily for 5 days
Description: as §2, with “line. […]” for “line.”

MDA-MB-231 [5] = assay: Mouse hollow fiber model, TNBC (MDA-MB-231); assay type: in vivo; conditions: TNBC MDA-MB-231 hollow fibers s.c. in mice; 50 mg/kg orally once daily for five days; modified MTT; vs Day 5 vehicle
Description: as §2

[6] = 15-100 mg/kg orally once daily for 3 weeks
[7] = 15 mg/kg orally once daily for 3 weeks
[8] = 35 mg/kg orally once daily for 3 weeks
[9] = 50 mg/kg orally once daily for 3 weeks
[10] = 100 mg/kg orally once daily for 3 weeks

Cc1nc(C)c(-c2ccc(=O)n(CC3CCN(c4ncnc5ncccc45)CC3)n2)s1 [test compound, 6-(2,4-dimethylthiazol-5-yl)-2-((1-(pyrido[2,3-d]pyrimidin-4-yl)piperidin-4-yl)methyl)pyridazin-3(2H)-one]
concentrations of test compound in the plasma, trend with dose [1, 6]: dose-dependent increases | concentration at 8 h [1, 7]: 10.3 ± 1.7 ng/mL | concentration at 8 h [1, 8]: 42.6 ± 29.1 ng/mL | concentration at 8 h [1, 9]: 59.4 ± 21.9 ng/mL | concentration at 8 h [1, 10]: 230 ± 111 ng/mL | growth inhibition (mean % inhibition of cell growth) (HepG2): 28.1% | Tumor volume, Mean (MDA-MB-231 [2]; 15 mg/kg orally once daily, Day 0): 93 mm^3 | Tumor volume, Mean (MDA-MB-231 [2]; 15 mg/kg orally once daily, Day 2): 137 mm^3 | Tumor volume, Mean (MDA-MB-231 [2]; 15 mg/kg orally once daily, Day 5): 212 mm^3 | Tumor volume, Mean (MDA-MB-231 [2]; 15 mg/kg orally once daily, Day 8): 330 mm^3 | Tumor volume, Mean (MDA-MB-231 [2]; 15 mg/kg orally once daily, Day 10): 435 mm^3 | Tumor volume, Mean (MDA-MB-231 [2]; 15 mg/kg orally once daily, Day 12): 534 mm^3 | Tumor volume, Mean (MDA-MB-231 [2]; 15 mg/kg orally once daily, Day 14): 749 mm^3 | Tumor volume, Mean (MDA-MB-231 [2]; 15 mg/kg orally once daily, Day 16): 921 mm^3 | Tumor volume, Mean (MDA-MB-231 [2]; 15 mg/kg orally once daily, Day 19): 1157 mm^3 | Tumor volume, Mean (MDA-MB-231 [2]; 15 mg/kg orally once daily, Day 21): 1494 mm^3 | Tumor volume, Mean (MDA-MB-231 [2]; 35 mg/kg orally once daily, Day 0): 92 mm^3 | Tumor volume, Mean (MDA-MB-231 [2]; 35 mg/kg orally once daily, Day 2): 129 mm^3 | Tumor volume, Mean (MDA-MB-231 [2]; 35 mg/kg orally once daily, Day 5): 191 mm^3 | Tumor volume, Mean (MDA-MB-231 [2]; 35 mg/kg orally once daily, Day 8): 307 mm^3 | Tumor volume, Mean (MDA-MB-231 [2]; 35 mg/kg orally once daily, Day 10): 390 mm^3 | Tumor volume, Mean (MDA-MB-231 [2]; 35 mg/kg orally once daily, Day 12): 485 mm^3 | Tumor volume, Mean (MDA-MB-231 [2]; 35 mg/kg orally once daily, Day 14): 739 mm^3 | Tumor volume, Mean (MDA-MB-231 [2]; 35 mg/kg orally once daily, Day 16): 897 mm^3 | Tumor volume, Mean (MDA-MB-231 [2]; 35 mg/kg orally once daily, Day 19): 1101 mm^3 | Tumor volume, Mean (MDA-MB-231 [2]; 35 mg/kg orally once daily, Day 21): 1459 mm^3 | Tumor volume, Mean (MDA-MB-231 [2]; 50 mg/kg orally once daily, Day 0): 94 mm^3 | Tumor volume, Mean (MDA-MB-231 [2]; 50 mg/kg orally once daily, Day 2): 123 mm^3 | Tumor volume, Mean (MDA-MB-231 [2]; 50 mg/kg orally once daily, Day 5): 191 mm^3 | Tumor volume, Mean (MDA-MB-231 [2]; 50 mg/kg orally once daily, Day 8): 295 mm^3 | Tumor volume, Mean (MDA-MB-231 [2]; 50 mg/kg orally once daily, Day 10): 368 mm^3 | Tumor volume, Mean (MDA-MB-231 [2]; 50 mg/kg orally once daily, Day 12): 463 mm^3 | Tumor volume, Mean (MDA-MB-231 [2]; 50 mg/kg orally once daily, Day 14): 716 mm^3 | Tumor volume, Mean (MDA-MB-231 [2]; 50 mg/kg orally once daily, Day 16): 875 mm^3 | Tumor volume, Mean (MDA-MB-231 [2]; 50 mg/kg orally once daily, Day 19): 1078 mm^3 | Tumor volume, Mean (MDA-MB-231 [2]; 50 mg/kg orally once daily, Day 21): 1397 mm^3 | Tumor volume, Mean (MDA-MB-231 [2]; 100 mg/kg orally once daily, Day 0): 88 mm^3 | Tumor volume, Mean (MDA-MB-231 [2]; 100 mg/kg orally once daily, Day 2): 126 mm^3 | Tumor volume, Mean (MDA-MB-231 [2]; 100 mg/kg orally once daily, Day 5): 186 mm^3 | Tumor volume, Mean (MDA-MB-231 [2]; 100 mg/kg orally once daily, Day 8): 290 mm^3 | Tumor volume, Mean (MDA-MB-231 [2]; 100 mg/kg orally once daily, Day 10): 363 mm^3 | Tumor volume, Mean (MDA-MB-231 [2]; 100 mg/kg orally once daily, Day 12): 458 mm^3 | Tumor volume, Mean (MDA-MB-231 [2]; 100 mg/kg orally once daily, Day 14): 652 mm^3 | Tumor volume, Mean (MDA-MB-231 [2]; 100 mg/kg orally once daily, Day 16): 782 mm^3 | Tumor volume, Mean (MDA-MB-231 [2]; 100 mg/kg orally once daily, Day 19): 933 mm^3 | Tumor volume, Mean (MDA-MB-231 [2]; 100 mg/kg orally once daily, Day 21): 1158 mm^3 | Histopathology of tumors compared to the vehicle (MDA-MB-231 [2]; [6]): dose-dependent decrease in tumor cells, increase in necrosis and decrease in blood vessel formation | mean tumor volumes compared to the vehicle control on day 21 (MDA-MB-231 [2]; [6]): dose-dependent decreases | growth inhibition (mean % inhibition of cell growth) (Mia-PaCa-2): 63.0% | Body weight and clinical signs of animals [3]: apparently normal | MYC protein levels in tumor homogenate, Mean ± SD (MYC; [7]): 35.70 ± 2.45 ng/mg tumor homogenate | MYC protein levels in tumor homogenate, Mean ± SD (MYC; [8]): 29.55 ± 2.93 ng/mg tumor homogenate | MYC protein levels in tumor homogenate, Mean ± SD (MYC; [9]): 29.11 ± 4.66 ng/mg tumor homogenate | MYC protein levels in tumor homogenate, Mean ± SD (MYC; [10]): 23.53 ± 4.28 ng/mg tumor homogenate | MYC biomarker levels in the tumor, trend with dose (MYC; [6]): dose-dependent decreases | changes in body weight versus the vehicle-treated group [4]: no significant changes | growth inhibition (mean % inhibition of cell growth) (MDA-MB-231 [5]): 88.2%

— US20250368623A1, “PYRIDAZINONE-DERIVED COMPOUNDS FOR THE MODULATION OF MYC AND FOR MEDICAL USES” (GENETIC INTELLIGENCE, INC, priority 2022, published 2025)
